Experimental data: the NIST ThermoML archive (doi:10.1021/je700260f)

Conditions: 323.15 K, Liquid, Vibrating tube method

FC(C(F)(F)F)C(F)(F)F [1,1,1,2,3,3,3-heptafluoropropane]
Conditions | mass density [kg/m3]
9744 kPa | 1360.2
9763 kPa | 1360.3
9782 kPa | 1360.5
9800 kPa | 1360.6
9817 kPa | 1360.8
9836 kPa | 1360.8
9857 kPa | 1361.2
9876 kPa | 1361.3
9894 kPa | 1361.4
10348 kPa | 1364.7
10377 kPa | 1364.9
10394 kPa | 1364.9
10416 kPa | 1365.1
10433 kPa | 1365.2
10451 kPa | 1365.3
10468 kPa | 1365.4
10492 kPa | 1365.7
10512 kPa | 1365.7
10532 kPa | 1365.9
10553 kPa | 1366
10577 kPa | 1366.2
10595 kPa | 1366.3
10749 kPa | 1367.4
10766 kPa | 1367.5
10786 kPa | 1367.7
10804 kPa | 1367.8
10828 kPa | 1367.9
10845 kPa | 1368.1
10864 kPa | 1368.3
10894 kPa | 1368.4
11387 kPa | 1371.8
11407 kPa | 1371.9
11425 kPa | 1372
11446 kPa | 1372.2
11463 kPa | 1372.3
11483 kPa | 1372.5
11501 kPa | 1372.7
11519 kPa | 1372.7
11540 kPa | 1372.9
12697 kPa | 1380.5
12717 kPa | 1380.6
12774 kPa | 1380.8
12791 kPa | 1381
12809 kPa | 1381.2
12835 kPa | 1381.4
12849 kPa | 1381.5
12876 kPa | 1381.6
12893 kPa | 1381.6
12913 kPa | 1381.8
12933 kPa | 1382
12950 kPa | 1382.2
12971 kPa | 1382.2
12984 kPa | 1382.4
13009 kPa | 1382.4
13183 kPa | 1383.5
13201 kPa | 1383.6
13222 kPa | 1383.8
13245 kPa | 1383.9
13732 kPa | 1386.8
13757 kPa | 1387.1
13777 kPa | 1387.2
13803 kPa | 1387.2
13826 kPa | 1387.4
13851 kPa | 1387.5
13891 kPa | 1387.8
13911 kPa | 1387.9
13940 kPa | 1388.1
13964 kPa | 1388.4
13981 kPa | 1388.6
14001 kPa | 1388.5
14024 kPa | 1388.6
14045 kPa | 1388.8
14066 kPa | 1388.9
14089 kPa | 1389.2
14106 kPa | 1389.2
14126 kPa | 1389.3
14223 kPa | 1390
14245 kPa | 1390
14268 kPa | 1390.2
14290 kPa | 1390.1
14307 kPa | 1390.4
14331 kPa | 1390.5
14346 kPa | 1390.7
14525 kPa | 1391.7
14547 kPa | 1392
14564 kPa | 1392
14584 kPa | 1392
14606 kPa | 1392.1
14624 kPa | 1392.3
14649 kPa | 1392.4
14665 kPa | 1392.5
14689 kPa | 1392.6
14710 kPa | 1392.9
15240 kPa | 1396
15711 kPa | 1398.5
15733 kPa | 1398.8
15763 kPa | 1398.9
15783 kPa | 1399.1
15811 kPa | 1399.3
15834 kPa | 1399.3
15857 kPa | 1399.5
15884 kPa | 1399.6
15907 kPa | 1399.8
15931 kPa | 1400
15952 kPa | 1399.9
15979 kPa | 1400.1
15995 kPa | 1400.2
16018 kPa | 1400.3
16047 kPa | 1400.5
16072 kPa | 1400.6
16209 kPa | 1401.3
16238 kPa | 1401.5
16257 kPa | 1401.7
16276 kPa | 1401.7
16300 kPa | 1401.9
16318 kPa | 1402
16339 kPa | 1402.1
16364 kPa | 1402.3
16385 kPa | 1402.4
16407 kPa | 1402.6
16429 kPa | 1402.6
16451 kPa | 1402.8
16474 kPa | 1402.8
16502 kPa | 1403
16520 kPa | 1403.2
16544 kPa | 1403.3
16566 kPa | 1403.2
16584 kPa | 1403.6
16603 kPa | 1403.7
16629 kPa | 1403.6
16649 kPa | 1403.9
16677 kPa | 1404.1
16763 kPa | 1404.5
16808 kPa | 1404.8
16827 kPa | 1404.9
16854 kPa | 1405.1
16872 kPa | 1405
16898 kPa | 1405.2
16920 kPa | 1405.3
16947 kPa | 1405.5
16978 kPa | 1405.6
16998 kPa | 1405.8
17027 kPa | 1406
17050 kPa | 1406
17073 kPa | 1406.2
17097 kPa | 1406.2
17120 kPa | 1406.4
17141 kPa | 1406.4
17170 kPa | 1406.7
17197 kPa | 1406.8
17220 kPa | 1406.9
17330 kPa | 1407.5
17378 kPa | 1407.6
17898 kPa | 1410.5
17952 kPa | 1410.9
17976 kPa | 1411.1
17998 kPa | 1411.2
18024 kPa | 1411.4
18049 kPa | 1411.4
18081 kPa | 1411.6
18105 kPa | 1411.8
18129 kPa | 1411.7
18160 kPa | 1412
18184 kPa | 1412.1
18240 kPa | 1412.4
18317 kPa | 1412.9
18547 kPa | 1414
18567 kPa | 1414.1
18596 kPa | 1414.3
18614 kPa | 1414.3
18862 kPa | 1415.5
18885 kPa | 1415.8
18905 kPa | 1415.8
18929 kPa | 1416
18952 kPa | 1416.1
18981 kPa | 1416.2
19007 kPa | 1416.4
19162 kPa | 1417
19197 kPa | 1417.4
20153 kPa | 1422
20175 kPa | 1422.2
20203 kPa | 1422.2
20225 kPa | 1422.4
20251 kPa | 1422.6
20283 kPa | 1422.7
20313 kPa | 1422.8
20340 kPa | 1422.8
20370 kPa | 1423.2
20404 kPa | 1423.3
20429 kPa | 1423.4
20481 kPa | 1423.6
21768 kPa | 1429.8
21806 kPa | 1430
21829 kPa | 1430.1
21855 kPa | 1430
21886 kPa | 1430.3
21913 kPa | 1430.5
21936 kPa | 1430.6
21971 kPa | 1430.7
22991 kPa | 1435.4
23635 kPa | 1438.4
23664 kPa | 1438.4
23690 kPa | 1438.6
23714 kPa | 1438.6
23750 kPa | 1438.7
